In patent US12570608B2, “Compound derived from quinoline, use of a compound, composition and method for the treatment or prophylaxis of a condition caused by a blood parasite” (FUNDÃÇAO OSWALDO CRUZ, priority 2019, dated 2026):
Values joined by “and” are separate entries in the source; they are usually repeats but may differ in a detail not shown here. Equal values may be shown once. Read-outs that look alike come from different tables or passages of the source.

Experiments:
[1] = system: P. falciparum K1; assay: Antiplasmodial SYBR Green assay, multiresistant strain; type: cell-based, Plasmodium falciparum; details: for Antiplasmodial activity: K1 resistant strain, highest dose 10 μM; for IC50: Plasmodium falciparum; for Selectivity index K1: ratio between MDL50 and IC50, K1
Protocol: Freshly synchronized sorbitol ring stages (Lambros and Vanderberg, 1979) were immediately incubated with the test compounds at various concentrations (10-0.152 μM or 1.0-0.0152 μM) previously solubilized in 0.05% dimethyl sulfoxide (DMSO) (v/v). Each test was performed in triplicate in at least two different experiments.
The antiplasmodial activity of the compounds was measured by DNA labeling assay using the fluorescent probe SYBR Green (Smilkstein et al., 2004).
Briefly, plates were centrifuged at 700 g for 5 min in room temperature to remove medium, washed with PBS, and incubated for 30 min with lysis buffer solution and SYBR Green I DNA dye (1:20000). The fluorescence of the uninfected erythrocytes was considered as background. Fluorescence was measured in a fluorimeter at 485/535 nm.
(§1) The half maximum inhibitory concentration of the drug (IC50) was estimated by curve fitting using software and compared with the parasite growth in the compound-free medium.

[2] = system: P. falciparum 3D7; assay: Antiplasmodial SYBR Green assay, CQ-sensitive strain; type: cell-based, Plasmodium falciparum; details: for IC50: Plasmodium falciparum; for Selectivity index 3D7: ratio between MDL50 and IC50, 3D7
Protocol: Each test was performed in triplicate in at least two different experiments.
Briefly, plates were centrifuged at 700 g for 5 min in room temperature to remove medium, washed with PBS, and incubated for 30 min with lysis buffer solution and SYBR Green I DNA dye (1:20000). The fluorescence of the uninfected erythrocytes was considered as background.
as §1

[3] = system: BGM-VN; assay: Cytotoxicity, MTT assay; type: cell-based; details: 24 h incubation
Protocol: The compounds (20 μL) at various concentrations (400-1.0 μM) were placed in the 96-well plates, incubated with the cultured cells for 24 h under a 5%CO2 atmosphere at 37° C., and then a 3-(4,5-dimethylthiazol-2-yl)-2,5-diphenyltetrazolium bromide (MTT) solution ([…]; 20 μL/well for 3 h) was used to assess mitochondrial viability.
The supernatants were carefully removed and 100 μL of DMSO was added to each well and mixed to solubilize the formazan crystals. The optical density was determined at 570 nm. Cell viability was expressed as the percentage of the control absorbance in the untreated cells after subtracting the appropriate background. Each test was performed in triplicate in at least two different experiments.

[4] = system: β-hematin formation; assay: Inhibition of β-hematin formation (lipid-catalysed heme crystallization); type: biochemical
Protocol: Briefly, drug stock solutions were prepared in DMSO, used at a final concentration of up to 30 mM A heme stock (10 mM) was made in DMSO and diluted to […] with 100 mM sodium acetate (pH 4.8).
The plates were incubated at 37° C. for 2 h to allow crystallization, followed by the addition of 100 μL of 200 mM sodium bicarbonate (pH 9.1) to solubilize any remaining monomeric heme. After incubation for 30 min at room temperature, the amount of solubilized monomeric heme was determined by measuring the absorbance at 405 nm.
Finally, 20 μL of 1 M sodium hydroxide was added to the plates to dissolve the crystals formed. The absorbance was read at 405 nm to determine the total amount of heme present in each well.
The inhibition of heme crystallization was determined as a function of the amount of monomeric heme that was not crystallized divided by the total amount of heme present in the test mixture. The results are expressed as IC50 values based on the percentage inhibition of β-hematin formation by compounds GIQ, CEQ, PCQ and DAQ. Each test was performed in triplicate in at least two different experiments.

[5] = system: CQ-resistant strains; details: prior art; cited from earlier work
[6] = system: P. berghei NK65; assay: P. berghei suppression test in mice; type: in vivo; details: for Survival of mice compared to the untreated control: Mann-Whitney test; for Parasitemia % reduction day 5 / Parasitemia % reduction day 7 / Parasitemia % reduction day 9 / Parasitemia % reduction day 11 / Parasitemia % reduction day 13 / Parasitemia % reduction day 15: three days, relative to untreated mice
Protocol: A P. berghei NK65 strain was obtained as a donation from New York University and maintained through weekly blood draws.
On days 5 to 15 after parasite inoculation, blood was taken from the tail of each mouse and used to prepare thin smears that were fixed with methanol, stained with Giemsa and examined microscopically (1000×) to determine parasitemia.
Parasite growth inhibition was determined relative to parasitemia in the untreated mice, considered to be 100% parasite growth. […] The experiments were performed twice.

[7] = system: Indochina I; details: resistant strain Indochina I; verapamil; cited from earlier work
[8] = system: P. falciparum K1; assay: Time course of inhibitory activity, microscopy of synchronized parasites; type: cell-based, Plasmodium falciparum; details: 10 times IC50 of 3D7 applied to K1; 0, 12, 24, 36 h
Protocol: The time course of inhibitory activity of the CQ analogues was also evaluated. The compounds were incubated at a concentration 10 times higher than the IC50 values obtained for the P. falciparum 3D7 sensitive strain with synchronized parasites. Morphological changes were then observed by microscopy after 0, 12, 24 and 36 hours after synchronization (FIG. 3). Parasites sensitive (3D7 strain) and resistant (K1 strain) to CQ were tested in parallel, and the antimalarial CQ was used as a control.

[9] = multiresistant strain K1, SYBR Green, ± SD, read-out: IC50 (nM ± SD) P.falciparum K1
[10] = CQ-sensitive strain 3D7, SYBR Green, ± SD, read-out: IC50 (nM ± SD) P.falciparum 3D7
[11] = K1, read-out: IC50 (nM ± SD) P.falciparum K1
[12] = 3D7, read-out: IC50 (nM ± SD) P.falciparum 3D7
[13] = 50 mg/kg orally, daily for three days
[14] = CQ 20 mg/kg, daily for three days

Compound	Selectivity index K1 [1]	Selectivity index 3D7 [2]	MLD50 (μM) BGM-VN [3] [µM]	IC50 [1, 11] [nM]	IC50 [2, 12] [nM]	Survival [6, 13]	Survival of mice compared to the untreated control ([6]; 50 mg/kg orally)	Parasitemia day 5 [6, 13]	Parasitemia day 7 [6, 13]	Parasitemia % reduction day 7 ([6]; 50 mg/kg orally) [%]	Parasitemia day 9 [6, 13]	Parasitemia % reduction day 9 ([6]; 50 mg/kg orally) [%]	Parasitemia day 11 [6, 13]	Parasitemia % reduction day 11 ([6]; 50 mg/kg orally) [%]	Parasitemia day 13 [6, 13]	Parasitemia % reduction day 13 ([6]; 50 mg/kg orally) [%]	Parasitemia day 15 [6, 13]	Parasitemia % reduction day 15 ([6]; 50 mg/kg orally) [%]	also measured
O=C(O)CNc1ccnc2cc(Cl)ccc12 [GIQ]	Inactive	Inactive	>1000	–	–	–	–	–	–	–	–	–	–	–	–	–	–	–	Antiplasmodial activity [1]: inactive; IC50 [1, 9]: > 10000 nM; Antiplasmodial activity ([2]; 3D7, highest dose 10 μM): inactive; IC50 [2, 10]: > 10000 nM; β-hematin inhibition, comparison [4]: least potent
CCN(CC)Cc1cc(Nc2ccnc3cc(Cl)ccc23)ccc1O [AQ]	–	–	–	–	–	–	–	–	–	–	–	–	–	–	–	–	–	–	Activity against CQ-resistant strains (literature, words) [5]: cross-resistance with CQ
C#CCNc1ccnc2cc(Cl)ccc12 [PCQ]	1005	1079	407 ± 185	405 ± 32	377 ± 14	17 ± 8	not increased	1.04	4.83	10	5.75	8	7.5	32	7.0	32	34.5	0	Parasitemia % reduction day 5 ([6]; 50 mg/kg orally, 50 mg/kg): 70% and 73%
CCN(CC)CCCC(C)Nc1ccnc2cc(Cl)ccc12 (stereo not shown) [CQ, chloroquine, reference compound]	–	–	–	177 ± 20	36 ± 12	–	–	–	–	–	–	–	–	–	–	–	–	–	Parasitemia until the last day of evaluation ([6]; CQ 20 mg/kg): did not show parasitemia; Survival ([6]; CQ 20 mg/kg): survived until the last day of the experiment; Survival [6, 14]: >30; Parasitemia day 5 [6, 14]: 0.00; Parasitemia % reduction day 5 ([6]; CQ 20 mg/kg): 100%; Parasitemia day 7 [6, 14]: 0.00; Parasitemia % reduction day 7 ([6]; CQ 20 mg/kg): 100%; Parasitemia day 9 [6, 14]: 0.00; Parasitemia % reduction day 9 ([6]; CQ 20 mg/kg): 100%; Parasitemia day 11 [6, 14]: 0.00; Parasitemia % reduction day 11 ([6]; CQ 20 mg/kg): 100%; Parasitemia day 13 [6, 14]: 0.00; Parasitemia % reduction day 13 ([6]; CQ 20 mg/kg): 100%; Parasitemia day 15 [6, 14]: 0.00; Parasitemia % reduction day 15 ([6]; CQ 20 mg/kg): 100%; Improvement of IC50 after PfCRT inhibition [7]: 10 ×; Time course / stage of action, morphology [8]: did not block complete parasite development
NCCNc1ccnc2cc(Cl)ccc12 [CEQ]	–	655	179 ± 40	–	–	26 ± 6	significantly higher	0.00	0.00	100	0.00	100	0.00	100	0.57	94	4	80	IC50 [1, 9]: 218 ± 44 nM; IC50 [2, 10]: 273 ± 12 nM; Parasitemia % reduction day 5 ([6]; 50 mg/kg orally): 100%
CCN(CC)CC#CCNc1ccnc2cc(Cl)ccc12 [DAQ]	29620	32195	1481 ± 39	50 ± 3	46 ± 4	28 ± 1	significantly higher	0.00	0.00	100	0.00	100	0.00	100	0.77	92	3.67	82	Antiplasmodial activity [1]: active; Selectivity index (SI) quoted in text ([2]; strain not stated): 55.750; Parasitemia % reduction day 5 ([6]; 50 mg/kg orally): 100%; β-hematin inhibition, comparison [4]: lower than that of CQ
CCN(CC)CCCNc1ccnc2cc(Cl)ccc12 [AQ-13]	–	–	–	–	–	–	–	–	–	–	–	–	–	–	–	–	–	–	Activity against CQ-resistant strains (literature, words) [5]: shows antimalarial activity
